Tests used:
Factor D = molecular target: T1, Factor D (Homo sapiens, UniProt P00746); experiment: BLI biosensor assay of Factor D cleavage of Factor B, anti-Bb antibody binding; type: biochemical
T1 construct: purchased Comptech (Tyler TX)

C5 convertase = C5 convertase activity on bio-C3b streptavidin-coated spheres, C5a measured with MSD (ECL) assay; type: biochemical; settings: for ECL signal (amount of C5a produced by C5 convertase): C5 100 nM, 60 minutes
Experimental: The bio-C3b binding to streptavidin was performed in a 2.0 ml micro-centrifuge tube. Two hundred and forty […] of Spherotech beads, […] diameter, streptavidin coated spheres were first washed by centrifugation with 300 μL of 10 mM Tris, pH 8, and then resuspended in 200 μL of 10 mM Tris, pH 8. The spheres were incubated with bio-C3b or C3b at a concentration of 320 nM. Spheres were suspended by gentle shaking at 1350 RPM for 20 minutes at room temperature, and collected by centrifugation at 16 RCF for 10 minutes. The residual supernatant was removed and the beads are then washed to remove residual unbound bio-C3b.
C5 convertase was formed on the spheres by incubating the bio-C3b spheres with a Convertase Solution that included components of the AP, a divalent cation and buffer. The Convertase Solution consisted of Factor D, (10 nM), Factor B (400 nM), and NiCl2 (200 μM) in 10 mM Tris, pH 8.0. The spheres were suspended by gentle shaking at 1350 RPM for 20 minutes at 37° C. The spheres were centrifuged at 16×g (RCF) for 10 minutes, the supernatant is removed, and the spheres are resuspended in 1.2 ml of 10 mM Tris pH 8, 1 mM EDTA to a final concentration of 200 μg/ml.
Formation of C5a was accomplished by incubating C5, and the spheres in a Reaction Solution that included a divalent cation. The Reaction Solution was prepared by transferring to a microplate well: (i) […] of spheres with C5 convertase in 10 μl of the Convertase Solution; (ii) […] of a 500 μM NiCl2 solution; and (iii) […] of a 250 nM solution of C5 (5 pmoles). […]
Following the incubation, the reaction was stopped by adding 10 μL of a 500 mM EDTA in 10 mM Tris, pH=8.0. (Total Volume=60 μl)
The amount of C5a in the Reaction Solution was measured with an MSD assay, similar to an ELISA. The neo-epitope anti-C5a antibody, BNJ383, captured soluble C5a, binding it to a well in a microplate. BNJN383 has a high affinity for C5a but a low affinity for C5. The detection reagent was a mouse anti-C5a antibody that binds the C5a captured on the plate, and a SULFO-TAG™ modified anti-mouse secondary antibody that bound the mouse antibody, and generated an ECL signal.
To wells of a high binding 96-well microplate (MSD Catalog No. L15XB-3) was added BNJ383 (0.3 pmoles,)[…]/mL in 25 μL of a carbonate-bicarbonate buffer at pH 9.4. The microplate was sealed and incubated at 37° C. for 60 minutes. […]
The wells were sealed with a foil seal and incubated in the dark for 30 minutes. […] One hundred and fifty μL of 2X MSD Read Buffer containing tripropylamine as an electron carrier was added to the wells using a negative pipetting technique. The microplate was read on an MSD imager to measure the ECL signal generated by the SULFO-TAG™ affixed to the goat secondary antibody. […]

T1 sequence (P00746 26-253): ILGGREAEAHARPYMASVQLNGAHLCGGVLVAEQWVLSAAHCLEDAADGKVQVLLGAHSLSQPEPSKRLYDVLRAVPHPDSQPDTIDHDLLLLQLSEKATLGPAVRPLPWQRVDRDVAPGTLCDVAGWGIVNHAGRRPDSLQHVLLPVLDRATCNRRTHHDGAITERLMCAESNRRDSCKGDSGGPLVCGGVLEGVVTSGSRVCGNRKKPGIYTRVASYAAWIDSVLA

Compound	Effect on Factor D activity (Factor D; DCIC 23 μM and 35 μM)	Effect on Factor D activity (Factor D; DCIC 178 μM, 267 μM and 400 μM)	Effect on convertase activity (C5 convertase; OmCI 50 nM)	ECL signal (amount of C5a produced by C5 convertase) (C5 convertase; OmCI 50 nM)	drop of ECL signal (C5 convertase; OmCI 100 nM)	ECL signal (amount of C5a produced by C5 convertase) (C5 convertase; OmCI 100 nM)
O=c1oc(Cl)c(Cl)c2ccccc12 [DCIC, 3,4-Dichloroisocoumarin]	minimal effect	maximally inhibited				
OmCI: tick saliva complement inhibitor, a C5 binding protein that reduces access of the C5 convertase to the C5 cleavage site			essentially no effect	40,000	8 fold	5000
